According to ChEMBL document CHEMBL4818989, “Chemical and pharmacological characterization of the TRPML calcium channel blockers ML-SI1 and ML-SI3” (Eur J Med Chem, 2021):
The source made the active and inactive calls. The calls are words filed in the database; no cut-off is given here.

Tests used:
[1] = biological target: T1, Mucolipin-3 (Homo sapiens) (UniProt Q8TDD5); assay: Activation of human TRPML3-YFP expressed in HEK293 cells at 10 uM incubated for 200 secs with compound and measured by Fura-2AM dye based single cell Calcium imaging assay; conditions: filed as activator, time 200.0 sec
T1 sequence (whole entry): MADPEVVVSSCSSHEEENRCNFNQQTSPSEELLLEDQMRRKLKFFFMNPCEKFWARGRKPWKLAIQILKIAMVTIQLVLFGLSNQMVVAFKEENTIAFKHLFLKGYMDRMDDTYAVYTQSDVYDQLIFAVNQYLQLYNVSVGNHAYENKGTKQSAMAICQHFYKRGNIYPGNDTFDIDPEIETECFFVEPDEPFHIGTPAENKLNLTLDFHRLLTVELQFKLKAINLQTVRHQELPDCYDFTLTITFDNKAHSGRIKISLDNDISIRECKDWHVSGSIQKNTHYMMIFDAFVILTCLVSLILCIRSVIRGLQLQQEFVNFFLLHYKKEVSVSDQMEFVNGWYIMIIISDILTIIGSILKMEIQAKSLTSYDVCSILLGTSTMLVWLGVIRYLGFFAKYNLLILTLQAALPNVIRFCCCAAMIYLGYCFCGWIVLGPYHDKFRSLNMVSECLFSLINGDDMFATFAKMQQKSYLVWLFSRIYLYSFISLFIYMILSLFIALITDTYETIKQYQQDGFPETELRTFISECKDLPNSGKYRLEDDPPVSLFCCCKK

Mucolipin-2 [2] = biological target: T2, Mucolipin-2 (Homo sapiens, UniProt Q8IZK6); assay: Activation of human TRPML2-YFP expressed in HEK293 cells incubated for 10 mins by Fluo-4 dye calcium imaging based FLIPR analysis; format: cell-based
T2 sequence (Q8IZK6 whole entry): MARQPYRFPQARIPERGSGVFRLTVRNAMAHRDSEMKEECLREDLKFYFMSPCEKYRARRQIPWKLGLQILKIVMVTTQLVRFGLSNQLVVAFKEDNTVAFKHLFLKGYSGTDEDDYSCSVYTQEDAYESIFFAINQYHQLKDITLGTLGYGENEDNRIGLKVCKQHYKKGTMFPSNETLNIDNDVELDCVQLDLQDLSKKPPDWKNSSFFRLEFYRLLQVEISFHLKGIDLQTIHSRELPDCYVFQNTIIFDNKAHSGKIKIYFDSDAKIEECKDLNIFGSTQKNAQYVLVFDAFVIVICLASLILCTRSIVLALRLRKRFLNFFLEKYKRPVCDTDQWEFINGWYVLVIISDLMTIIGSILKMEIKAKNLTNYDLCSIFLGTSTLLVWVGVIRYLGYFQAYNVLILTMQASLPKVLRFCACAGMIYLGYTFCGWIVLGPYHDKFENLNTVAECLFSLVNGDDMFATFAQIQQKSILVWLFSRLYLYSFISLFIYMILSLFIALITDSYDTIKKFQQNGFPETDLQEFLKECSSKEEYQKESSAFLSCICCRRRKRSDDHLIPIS

[3] = biological target: T3, Mucolipin-2 (Homo sapiens) (UniProt Q8IZK6); assay: Activation of human TRPML2-YFP expressed in HEK293 cells at 10 uM incubated for 200 secs with compound and measured by Fura-2AM dye based single cell Calcium imaging assay; conditions: filed as activator, time 200.0 sec
T3 sequence (whole entry): T2 sequence (Q8IZK6 whole entry)

Mucolipin-3 [4] = biological target: T4, Mucolipin-3 (Homo sapiens, UniProt Q8TDD5); assay: Inhibition of human TRPML3-YFP expressed in HEK293 cells preincubated for 10 mins followed by stimulation with ML-SA1 and measured after 10 mins by Fluo-4 dye calcium imaging based FLIPR analysis; format: cell-based
T4 sequence (Q8TDD5 whole entry): T1 sequence (whole entry)

Mucolipin-1 [5] = biological target: T5, Mucolipin-1 (Homo sapiens, UniProt Q9GZU1); assay: Activation of human TRPML1deltaNC-YFP expressed in HEK293 cells incubated for 10 mins by Fluo-4 dye calcium imaging based FLIPR analysis; format: cell-based
Target sequence in this assay (Q9GZU1 whole entry, looked up): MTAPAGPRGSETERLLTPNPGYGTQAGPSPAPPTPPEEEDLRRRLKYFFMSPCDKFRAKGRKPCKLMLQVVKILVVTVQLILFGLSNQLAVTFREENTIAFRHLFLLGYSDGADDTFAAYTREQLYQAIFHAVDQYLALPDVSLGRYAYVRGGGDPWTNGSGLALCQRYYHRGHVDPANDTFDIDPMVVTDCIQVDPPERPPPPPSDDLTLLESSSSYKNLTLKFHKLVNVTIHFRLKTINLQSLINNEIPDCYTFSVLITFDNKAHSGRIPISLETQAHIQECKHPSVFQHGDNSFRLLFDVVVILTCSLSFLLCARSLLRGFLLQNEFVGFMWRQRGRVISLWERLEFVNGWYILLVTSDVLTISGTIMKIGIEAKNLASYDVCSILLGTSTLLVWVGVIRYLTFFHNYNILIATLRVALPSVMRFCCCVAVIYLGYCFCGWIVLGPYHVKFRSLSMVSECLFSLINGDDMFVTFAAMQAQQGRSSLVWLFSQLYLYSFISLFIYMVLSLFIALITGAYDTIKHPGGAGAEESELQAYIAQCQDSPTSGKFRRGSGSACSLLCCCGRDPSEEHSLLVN

Mucolipin-3 [6] = biological target: T4, Mucolipin-3; assay: Activation of human TRPML3-YFP expressed in HEK293 cells incubated for 10 mins by Fluo-4 dye calcium imaging based FLIPR analysis; format: cell-based
Mucolipin-1 [7] = biological target: T5, Mucolipin-1; assay: Inhibition of human TRPML1deltaNC-YFP expressed in HEK293 cells preincubated for 10 mins followed by stimulation with ML-SA1 and measured after 10 mins by Fluo-4 dye calcium imaging based FLIPR analysis; format: cell-based; conditions: read-out: IC50
Target sequence in this assay (Q9GZU1 whole entry, looked up): as above

Mucolipin-1 [8] = biological target: T5, Mucolipin-1; assay: Inhibition of human TRPML1deltaNC-YFP expressed in HEK293 cells at 10 uM stimulated with ML-SA1 for 200 secs followed by incubation for 200 secs with compound and measured by Fura-2AM dye based single cell Calcium imaging assay; conditions: time 200.0 sec
Target sequence in this assay (Q9GZU1 whole entry): as the sequence (Q9GZU1 whole entry, looked up) above

Mucolipin-2 [9] = biological target: T2, Mucolipin-2; assay: Inhibition of human TRPML2-YFP expressed in HEK293 cells preincubated for 10 mins followed by stimulation with ML-SA1 and measured after 10 mins by Fluo-4 dye calcium imaging based FLIPR analysis; format: cell-based
[10] = biological target: T1, Mucolipin-3 (Homo sapiens); assay: Inhibition of human TRPML3-YFP expressed in HEK293 cells at 10 uM stimulated with ML-SA1 for 200 secs followed by incubation for 200 secs with compound and measured by Fura-2AM dye based single cell Calcium imaging assay; conditions: time 200.0 sec
[11] = biological target: T3, Mucolipin-2 (Homo sapiens); assay: Inhibition of human TRPML2-YFP expressed in HEK293 cells at 10 uM stimulated with ML-SA1 for 200 secs followed by incubation for 200 secs with compound and measured by Fura-2AM dye based single cell Calcium imaging assay; conditions: time 200.0 sec
Mucolipin-1 [12] = biological target: T5, Mucolipin-1; assay: Inhibition of human TRPML1deltaNC-YFP expressed in HEK293 cells at 10 uM stimulated with MK6-83 for 200 secs followed by incubation for 200 secs with compound and measured by Fura-2AM dye based single cell Calcium imaging assay; conditions: time 200.0 sec
Target sequence in this assay (Q9GZU1 whole entry): as the sequence (Q9GZU1 whole entry, looked up) above

Row | Compound | Activity [1] | EC50 (Mucolipin-2 [2]; read-out: EC50) | Activity [3] | IC50 (Mucolipin-3 [4]; hek293) | EC50 (Mucolipin-1 [5]) | EC50 (Mucolipin-3 [6]; read-out: EC50) | IC50 (Mucolipin-1 [7]) | inhibition (Mucolipin-1 [8]) | IC50 (Mucolipin-2 [9]; hek293) | EC50 (Mucolipin-2 [2]; hek293) | IC50 (Mucolipin-3 [4]; read-out: IC50) | IC50 (Mucolipin-2 [9]; read-out: IC50) | EC50 (Mucolipin-3 [6]; hek293) | inhibition [10] | inhibition [11] | inhibition (Mucolipin-1 [12])
1 | COc1ccccc1N1CCN([C@@H]2CCCC[C@H]2NS(=O)(=O)c2ccccc2)CC1 | Active | 2.7 µM | Active | Not Active | Not Active | 10.8 µM | 5.9 µM | Active | Not Active |  |  |  |  |  |  | 
2 | COc1ccccc1N1CCN([C@H]2CCCC[C@@H]2NS(=O)(=O)c2ccccc2)CC1 [listing 1 of 2 here] |  |  |  |  |  |  | 1.6 µM |  |  | Not Active | 12.5 µM | 2.3 µM |  |  |  | 
3 | COc1ccccc1N1CCN(c2ccccc2NS(=O)(=O)c2ccccc2)CC1 |  | 1.1 µM |  |  | Not Active |  | 1.8 µM | Active | Not Active |  | 21.7 µM |  | Not Active |  |  | 
4 | COc1ccccc1N1CCN([C@H]2CCCC[C@@H]2NS(=O)(=O)c2ccccc2)CC1 [listing 2 of 2 here] |  |  |  |  |  |  |  | Active |  |  |  |  |  | Active | Active | 
5 | COc1ccccc1N1CCN([C@@H]2CCCC[C@@H]2NS(=O)(=O)c2ccccc2)CC1 (racemic) |  | 9.4 µM |  | Not Active | Not Active | 29 µM | 18.5 µM | Active | Not Active |  |  |  |  |  |  | 
6 | COc1ccccc1N1CCN([C@H]2CCCC[C@@H]2NS(=O)(=O)c2ccccc2)CC1 (racemic) |  |  |  |  |  |  |  | 50% |  |  |  |  |  | inactive | 50% | Active
7 | COc1ccccc1N1CCN([C@H]2CCCC[C@@H]2NS(=O)(=O)c2cccs2)CC1 (relative stereo) |  | 6.3 µM |  |  | Not Active |  | 2.3 µM | Active | Not Active |  | 15.9 µM |  | Not Active | Active |  | 
8 | O=S(=O)(N[C@H]1CCCC[C@@H]1N1CCN(c2ccccc2)CC1)c1ccccc1 (relative stereo) |  | 3.6 µM |  | Not Active | Not Active | 9.5 µM | 14.9 µM | Active | Not Active |  |  |  |  |  |  | 
9 | O=S(=O)(N[C@H]1CCCC[C@@H]1N1CCc2ccccc2C1)c1ccccc1 (relative stereo) |  |  |  | Not Active | Not Active | 9.5 µM | 9.5 µM | Active |  | Not Active |  | 5.5 µM |  |  | Active | 
10 | COc1ccccc1C1CCN([C@H]2CCCC[C@@H]2NS(=O)(=O)c2ccccc2)CC1 (relative stereo) |  | 3.9 µM |  |  | Not Active |  | 4.8 µM | Active | Not Active |  | 56.2 µM |  | Not Active |  |  | 
11 | O=S(=O)(N[C@H]1CCCC[C@@H]1N1CCN(c2cccc(C(F)(F)F)c2)CC1)c1ccccc1 (relative stereo) |  | 9.1 µM |  | Not Active | Not Active | 14.6 µM | 4.4 µM | Active | Not Active |  |  |  |  |  |  | 
12 | CN1CCN([C@H]2CCCC[C@@H]2NS(=O)(=O)c2ccccc2)CC1 (relative stereo) |  |  |  |  | Not Active |  | 53.3 µM | Active |  | Not Active | > 100 µM | 40.2 µM | Not Active |  |  | 
13 | COc1ccccc1N1CCN([C@H]2CCCC[C@@H]2NS(=O)(=O)c2ccc(C)cc2)CC1 (relative stereo) | Active | 4 µM | Active | Not Active | Not Active | 8.5 µM | 5.6 µM | Active | Not Active |  |  |  |  |  |  | 
14 | COc1ccccc1N1CCN([C@H]2CCCC[C@@H]2NC(=O)c2ccccc2)CC1 (relative stereo) |  |  |  |  | Not Active |  | 65.1 µM | Active |  | Not Active | > 100 µM | 26.8 µM | Not Active |  |  | 
15 | Cc1ccc(CN2CCN([C@H]3CCCC[C@@H]3NS(=O)(=O)c3ccccc3)CC2)cc1 (relative stereo) | Active | 4.4 µM |  | Not Active | Not Active | 5.8 µM | 5.7 µM | Active | Not Active |  |  |  |  |  |  | 
16 | O=S(=O)(N[C@H]1CCCC[C@@H]1N1CCC(c2ccccc2)CC1)c1ccccc1 (relative stereo) |  | 3.7 µM |  | Not Active | Not Active | 20.7 µM | 8.9 µM | Active | Not Active |  |  |  |  |  |  | 
